In ChEMBL document CHEMBL1201862, “PubChem BioAssay data set” (2004):
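1) Cells in 96-well plates. 2) Compound, 48 h, 5 concentrations. 3) Linear interpolation between surrounding doses. 4) Unreached endpoint = highest concentration. The concentration for 50% growth inhibition is given as GI50.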 Activity calls are given as the source filed them. Cut-off read from the data, not from the text of the source: active = GI50 up to about 1.1 µM and inactive = higher.

How the values were obtained:
Assay in all cases: growth of human tumour cells (NCI), 48 h
HCC 2998 = tested on: HCC 2998
HOP-92 = tested on: HOP-92
IGROV-1 = tested on: IGROV-1
M14 = tested on: M14
NCI-H226 = tested on: NCI-H226
OVCAR-5 = tested on: OVCAR-5
OVCAR-8 = tested on: OVCAR-8
PC-3 = tested on: PC-3
RXF 393 = tested on: RXF 393
SF-268 = tested on: SF-268
SF-295 = tested on: SF-295
SK-MEL-28 = tested on: SK-MEL-28
SK-MEL-2 = tested on: SK-MEL-2
SNB-19 = tested on: SNB-19
SNB-75 = tested on: SNB-75
SR = tested on: SR
TK-10 = tested on: TK-10
UACC-257 = tested on: UACC-257
LOX IMVI = tested on: LOX IMVI

SMILES	GI50 (HCC 2998)	GI50 (HOP-92)	GI50 (IGROV-1)	GI50 (M14)	GI50 (NCI-H226)	GI50 (OVCAR-5)	GI50 (OVCAR-8)	GI50 (PC-3)	GI50 (RXF 393)	GI50 (SF-268)	GI50 (SF-295)	GI50 (SK-MEL-28)	GI50 (SK-MEL-2)	GI50 (SNB-19)	GI50 (SNB-75)	GI50 (SR)	GI50 (TK-10)	GI50 (UACC-257)	GI50 (LOX IMVI)
CC(C)(Oc1ccc(-c2cccc3ccccc23)cc1)C(=O)O	> 100 µM (inactive)	> 100 µM (inactive)	> 100 µM (inactive)	> 100 µM (inactive)	> 100 µM (inactive)	> 100 µM (inactive)	> 100 µM (inactive)	> 100 µM (inactive)	> 100 µM (inactive)	> 100 µM (inactive)	60.4 µM (inactive)	> 100 µM (inactive)	> 100 µM (inactive)	> 100 µM (inactive)	> 100 µM (inactive)	> 100 µM (inactive)	> 100 µM (inactive)	> 100 µM (inactive)	–
N#Cc1c(Cl)cccc1Oc1ccc(S(=O)(=O)/N=C(\NN)Nc2ccc(Cl)cc2)cc1	–	21.2 µM (inactive)	20.1 µM (inactive)	22.9 µM (inactive)	17.4 µM (inactive)	28.5 µM (inactive)	31.2 µM (inactive)	23.6 µM (inactive)	19.1 µM (inactive)	22.8 µM (inactive)	24.2 µM (inactive)	31.8 µM (inactive)	21.6 µM (inactive)	41.1 µM (inactive)	21.6 µM (inactive)	0.0177 µM (active)	26.9 µM (inactive)	29.9 µM (inactive)	17.5 µM (inactive)
CCOC(=O)c1c(N)sc2c1C(C)(C(=O)OCC)CC2 (stereo unspecified)	> 100 µM (inactive)	58.3 µM (inactive)	> 100 µM (inactive)	> 100 µM (inactive)	> 100 µM (inactive)	> 100 µM (inactive)	> 100 µM (inactive)	> 100 µM (inactive)	> 100 µM (inactive)	–	–	> 100 µM (inactive)	> 100 µM (inactive)	> 100 µM (inactive)	88.3 µM (inactive)	92.7 µM (inactive)	> 100 µM (inactive)	> 100 µM (inactive)	–
CCOC(=O)c1nc2cc(F)c(N3CCOCC3)cc2[nH]c1=O	> 100 µM (inactive)	> 100 µM (inactive)	80.9 µM (inactive)	> 100 µM (inactive)	90.8 µM (inactive)	> 100 µM (inactive)	> 100 µM (inactive)	> 100 µM (inactive)	> 100 µM (inactive)	> 100 µM (inactive)	> 100 µM (inactive)	> 100 µM (inactive)	> 100 µM (inactive)	> 100 µM (inactive)	> 100 µM (inactive)	36.3 µM (inactive)	> 100 µM (inactive)	> 100 µM (inactive)	–
COc1ccccc1/C=C1\S/C(=N/Nc2nc(C)c(C(C)=O)s2)NC1=O	94.6 µM (inactive)	19.6 µM (inactive)	–	74 µM (inactive)	5.3 µM (inactive)	83 µM (inactive)	33.3 µM (inactive)	43.6 µM (inactive)	69 µM (inactive)	22.8 µM (inactive)	51.5 µM (inactive)	40.6 µM (inactive)	64.1 µM (inactive)	51.2 µM (inactive)	24.5 µM (inactive)	31 µM (inactive)	40.6 µM (inactive)	49.8 µM (inactive)	43.2 µM (inactive)
O=C(O)c1cccc(Nc2c(C(=O)O)cccc2[N+](=O)[O-])c1	> 100 µM (inactive)	> 100 µM (inactive)	> 100 µM (inactive)	> 100 µM (inactive)	–	> 100 µM (inactive)	> 100 µM (inactive)	> 100 µM (inactive)	–	–	> 100 µM (inactive)	–	> 100 µM (inactive)	> 100 µM (inactive)	> 100 µM (inactive)	> 100 µM (inactive)	> 100 µM (inactive)	> 100 µM (inactive)	> 100 µM (inactive)
COC(=O)C1=C(OC)[C@H]2C#C/C=C\C#C[C@@H]3Nc4c(cc(O)c5c4C(=O)c4ccccc4C5=O)[C@]24O[C@@]34[C@H]1C	< 0.01 µM (active)	< 0.01 µM (active)	< 0.0127 µM (active)	< 0.01 µM (active)	< 0.01 µM (active)	< 0.01 µM (active)	< 0.01 µM (active)	< 0.01 µM (active)	–	< 0.01 µM (active)	< 0.01 µM (active)	< 0.0229 µM (active)	0.0585 µM (active)	< 0.01 µM (active)	< 0.01 µM (active)	< 0.01 µM (active)	0.0327 µM (active)	< 0.01 µM (active)	< 0.01 µM (active)
COc1ccc(C)cc1Nc1nnc(-c2ccccc2N)s1	30 µM (inactive)	21.3 µM (inactive)	18 µM (inactive)	40.2 µM (inactive)	43 µM (inactive)	89.9 µM (inactive)	35.7 µM (inactive)	35 µM (inactive)	55.1 µM (inactive)	> 100 µM (inactive)	34 µM (inactive)	53.3 µM (inactive)	19.5 µM (inactive)	> 100 µM (inactive)	55 µM (inactive)	13.4 µM (inactive)	–	37.3 µM (inactive)	47.1 µM (inactive)
CC1OC2OC3C(OCC(O)C3O)OC(=O)[C@]34CCC(C)(C)CC3C3=CCC5[C@@]6(C)C[C@H](O)[C@H](OC7OC(CO)C(O)C(O)C7OC7OC(COC(=O)CC(C)(O)CC(=O)OC1C(OC1OC(CO)C(O)C(O)C1O)C2O)C(O)C(O)C7O)[C@@](C)(CO)C6CC[C@@]5(C)[C@]3(C)CC4 (stereo partly specified)	1.42 µM (inactive)	2.24 µM (inactive)	3.9 µM (inactive)	2.51 µM (inactive)	7.91 µM (inactive)	2.01 µM (inactive)	3.92 µM (inactive)	1.95 µM (inactive)	–	2.94 µM (inactive)	1.52 µM (inactive)	1.3 µM (inactive)	1.58 µM (inactive)	5.81 µM (inactive)	2.82 µM (inactive)	3.66 µM (inactive)	1.85 µM (inactive)	1.64 µM (inactive)	3.27 µM (inactive)
O=C1CCC2C(O)c3cc4c(cc3C(c3ccc5c(c3)OCO5)N12)OCO4 (stereo unspecified)	> 100 µM (inactive)	35.2 µM (inactive)	> 100 µM (inactive)	> 100 µM (inactive)	67.9 µM (inactive)	> 100 µM (inactive)	35.6 µM (inactive)	> 100 µM (inactive)	–	19.2 µM (inactive)	49.2 µM (inactive)	> 100 µM (inactive)	> 100 µM (inactive)	29.2 µM (inactive)	16.3 µM (inactive)	> 100 µM (inactive)	> 100 µM (inactive)	> 100 µM (inactive)	> 100 µM (inactive)
CC(=O)N(CCCCNC(=O)C(F)(F)F)CCCNC(=O)C(F)(F)F	> 100 µM (inactive)	> 100 µM (inactive)	> 100 µM (inactive)	> 100 µM (inactive)	> 100 µM (inactive)	> 100 µM (inactive)	> 100 µM (inactive)	> 100 µM (inactive)	> 100 µM (inactive)	> 100 µM (inactive)	> 100 µM (inactive)	> 100 µM (inactive)	> 100 µM (inactive)	> 100 µM (inactive)	> 100 µM (inactive)	> 100 µM (inactive)	> 100 µM (inactive)	> 100 µM (inactive)	–
CC(C)C[C@H](NC(=O)CCc1ccccc1)B(O)O	13.7 µM (inactive)	29.4 µM (inactive)	23.2 µM (inactive)	12.1 µM (inactive)	1.62 µM (inactive)	13.6 µM (inactive)	19.7 µM (inactive)	37.2 µM (inactive)	5.66 µM (inactive)	10.1 µM (inactive)	12 µM (inactive)	11 µM (inactive)	12.7 µM (inactive)	15.4 µM (inactive)	–	2.72 µM (inactive)	8.97 µM (inactive)	12.5 µM (inactive)	4.63 µM (inactive)
c1cc2c(cc1C1=NCCN1)c1cc(C3=NCCN3)ccc1n2CC1CCCCC1	–	8 µM (inactive)	18.2 µM (inactive)	33.6 µM (inactive)	12.3 µM (inactive)	22.1 µM (inactive)	25.4 µM (inactive)	21.5 µM (inactive)	39.5 µM (inactive)	4.31 µM (inactive)	32.1 µM (inactive)	10.4 µM (inactive)	15.7 µM (inactive)	5.9 µM (inactive)	11.6 µM (inactive)	7.26 µM (inactive)	51.3 µM (inactive)	22.7 µM (inactive)	16.3 µM (inactive)
COC(=O)c1ccc(OCCn2nnc(C(=O)NN)c2C(=O)NN)cc1	> 100 µM (inactive)	> 100 µM (inactive)	–	> 100 µM (inactive)	–	> 100 µM (inactive)	> 100 µM (inactive)	> 100 µM (inactive)	–	–	> 100 µM (inactive)	> 100 µM (inactive)	> 100 µM (inactive)	> 100 µM (inactive)	–	> 100 µM (inactive)	> 100 µM (inactive)	> 100 µM (inactive)	> 100 µM (inactive)
Cc1ccc2c3c1O[C@H]1c4[nH]c5ccccc5c4C[C@@]4(O)[C@@H](C2)N(CC2CC2)CC[C@]314	3.78 µM (inactive)	13 µM (inactive)	17.4 µM (inactive)	16.8 µM (inactive)	14.9 µM (inactive)	18.7 µM (inactive)	15.3 µM (inactive)	12.1 µM (inactive)	7.38 µM (inactive)	13.6 µM (inactive)	17.4 µM (inactive)	12.6 µM (inactive)	17.1 µM (inactive)	16.7 µM (inactive)	–	8.89 µM (inactive)	17.3 µM (inactive)	16.7 µM (inactive)	15.9 µM (inactive)
